The values below come from patent publication US10568324B2, “Agricultural and horticultural material, and plant cultivation method which promote coloring in fruit” (AJINOMOTO CO., INC., priority 2015, dated 2020).

For series [1], the system named is grape cultured cells (VR calluses). Briefly: Anthocyanin content in grape calluses treated with various amino acids (Reference Example 1(1)). In kind it is cell-based, Vitis vinifera L. The following applies: 5 days. As to the method:
Cells derived from a European grape cell line (Vitis vinifera L.; RIKEN BioResource Center; VR, management number RPC00003) were subcultured on MS agar medium. The subcultured VR calluses (i.e. cell clusters) were each transferred to MS agar medium containing 5 mM of each amino acid solution, and cultured. As a positive control, 100 μM abscisic acid (ABA) was added, which is a known color-promotor. Five days after the transfer, each callus was freeze-dried and ground, and anthocyanin was extracted with a 1% HCl solution in MeOH.

For series [2], the system named is Cabernet Sauvignon grape plants. The experiment in a line: Effect of isoleucine on coloring of grape berries, sprinkled on bunches in test farm (Reference Example 1(2)). In kind it is in vivo. The following applies: 10 mM Ile + 0.1% Applauch BI sprinkled on bunches in veraison period; FIG. 1. Here is the method:
Cabernet Sauvignon grape plants that had been cultivated in a test farm and had entered into the veraison period were chosen for this experiment. Eight bunches of grapes on each of two grape plants, 16 bunches of grapes in total, were selected for each test group. On each bunch of grapes, about 6.25 mL of 0.1% Applauch BI (Kao, control), 1 g/L of abscisic acid (ABA)+0.1% Applauch BI (positive control), or 10 mM isoleucine (Ile)+0.1% Applauch BI was sprinkled. As samples, 4 bunches for each test group were collected 4 times. Anthocyanin present in the pericarps was extracted with a mixed solution of water and acetone (1:2), and the anthocyanin content was measured in the same manner as described above.

For series [3] the following is noted: cited from earlier work.

Structures are written as SMILES. Converted amounts (≈) assume the structure as drawn. Where two headings read alike, the source gives them in different places.

For `C[C@H](N)C(=O)O` [Ala], the “Relative content of anthocyanin” value in series [1] (5 mM amino acid in MS agar medium, relative to positive control 100 μM ABA taken as 100%) was determined as 7%.
Turning to `CC[C@H](C)[C@H](N)C(=O)O` [Ile, isoleucine], in series [1] (5 mM amino acid, compared among the amino acids of Table 1), the “anthocyanin content of callus (in words)” value was “highest anthocyanin content”. Also, the “anthocyanin content in pericarps” value in series [2] was “increased”. For the same compound, in series [3], the solubility in water result is “about 0.3 M”.
As to `CC(C)C[C@H](N)C(=O)O` [Leu, leucine], the solubility in water is 24 mg/mL (≈ 183 mM) in series [3] (20° C.), 29 mg/mL (≈ 221 mM) in series [3] (50° C.) and “about 0.2 M” in series [3].
On to `N[C@@H](Cc1ccccc1)C(=O)O` [Phe, phenylalanine], for which the solubility in water in series [3] (20° C.) was 27 mg/mL (≈ 163 mM); in series [3] (50° C.) it was 40 mg/mL (≈ 242 mM); in series [3], “about 0.2 M”.
